In patent US9290451B2 (Hoffmann-La Roche Inc., priority 2011, dated 2016):

Experiments:
human CB1 receptors = human CB1 receptors (Homo sapiens (Human), UniProt P21554); test: cAMP assay, CHO cells expressing human CB1 receptors; type: cell-based; conditions: CHO cells expressing human CB1, cAMP; read-out: human CB1 EC50
Summary of the method: (§1)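 CHO cells, KRB buffer + 1 mM IBMX, 30 min 30 °C preincubation; compound 30 min 30 °C; lysis + TR-FRET cAMP detection, 2 h RT; cAMP from standard curve (10 μM–0.13 nM); EC50.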

human CB2 receptors = human CB2 receptors (Homo sapiens (Human), UniProt P34972); test: cAMP assay, CHO cells expressing human CB2 receptors; type: cell-based; conditions: CHO cells expressing human CB2, cAMP; read-out: human CB2 EC50
Summary of the method: as §1

Sequence of human CB2 receptors (P34972 whole entry): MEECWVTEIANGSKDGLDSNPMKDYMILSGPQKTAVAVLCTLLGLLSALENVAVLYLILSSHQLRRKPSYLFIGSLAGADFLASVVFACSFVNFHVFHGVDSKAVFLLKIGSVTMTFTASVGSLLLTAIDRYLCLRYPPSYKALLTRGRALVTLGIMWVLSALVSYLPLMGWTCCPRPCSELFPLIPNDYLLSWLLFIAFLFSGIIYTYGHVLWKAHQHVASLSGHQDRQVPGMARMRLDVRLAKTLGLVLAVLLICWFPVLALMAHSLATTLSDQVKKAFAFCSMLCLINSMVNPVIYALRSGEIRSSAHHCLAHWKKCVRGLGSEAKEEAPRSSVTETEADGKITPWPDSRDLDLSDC
Sequence of human CB1 receptors (P21554 whole entry): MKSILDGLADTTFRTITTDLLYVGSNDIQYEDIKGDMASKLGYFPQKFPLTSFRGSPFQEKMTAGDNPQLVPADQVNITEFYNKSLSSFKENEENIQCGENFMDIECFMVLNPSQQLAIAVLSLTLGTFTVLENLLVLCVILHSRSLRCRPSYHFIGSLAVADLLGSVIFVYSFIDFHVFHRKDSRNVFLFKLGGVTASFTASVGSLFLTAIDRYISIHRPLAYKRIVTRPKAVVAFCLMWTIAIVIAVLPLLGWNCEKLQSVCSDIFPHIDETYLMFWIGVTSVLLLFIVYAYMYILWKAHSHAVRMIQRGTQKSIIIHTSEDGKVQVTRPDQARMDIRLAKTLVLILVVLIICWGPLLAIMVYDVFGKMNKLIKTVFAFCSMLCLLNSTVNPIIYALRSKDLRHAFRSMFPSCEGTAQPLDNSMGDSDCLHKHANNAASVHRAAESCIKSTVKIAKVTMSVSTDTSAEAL

Row | SMILES | EC50 (human CB1 receptors) [nM] | EC50 (human CB2 receptors) [nM]
1 | CN1CC(NC(=O)c2ccc(N3CC(F)(F)C3)c(OCC3CC3)n2)CC1=O (centres unmarked) [Example 290, 6-Cyclopropylmethoxy-5-(3,3-difluoro-azetidin-1-yl)-pyridine-2-carboxylic acid (1-methyl-5-oxo-pyrrolidin-3-yl)-amide] | > 10000 | 846
2 | CCC(CC)(NC(=O)c1ccc(N2CCCC2)c(OCC2CC2)n1)C(=O)O [Example 291, 2-[(6-Cyclopropylmethoxy-5-pyrrolidin-1-yl-pyridine-2-carbonyl)-amino]-2-ethyl-butyric acid] | > 10000 | 413
3 | O=C(NC1CCS(=O)(=O)C1)c1ccc(N2CC(F)(F)C2)c(OCC2CC2)n1 (centres unmarked) [Example 292, 6-Cyclopropylmethoxy-5-(3,3-difluoro-azetidin-1-yl)-pyridine-2-carboxylic acid (1,1-dioxo-tetrahydro-1λ^6-thiophen-3-yl)-amide] | > 10000 | 874
4 | O=C(NNC1CCS(=O)(=O)C1)c1ccc(N2CC(F)(F)C2)c(OCC2CC2)n1 (centres unmarked) [Example 293, 6-Cyclopropylmethoxy-5-(3,3-difluoro-azetidin-1-yl)-pyridine-2-carboxylic acid N′-(1,1-dioxo-tetrahydro-1λ^6-thiophen-3-yl)-hydrazide] | > 10000 | 790
5 | Cc1csc(C(C)(C)NC(=O)c2ccc(C3CC3)c(OCC3CC3)n2)n1 [Example 294, 5-Cyclopropyl-6-cyclopropylmethoxy-pyridine-2-carboxylic acid [1-methyl-1-(4-methyl-thiazol-2-yl)-ethyl]-amide] | > 10000 | 112
6 | CC1(COc2nc(C(=O)NC(C)(C)c3nccs3)ccc2N2CC(F)(F)C2)COC1 [Example 295, 5-(3,3-Difluoro-azetidin-1-yl)-6-(3-methyl-oxetan-3-ylmethoxy)-pyridine-2-carboxylic acid (1-methyl-1-thiazol-2-yl-ethyl)-amide] | > 10000 | 259
7 | CC(C)(NC(=O)c1ccc(C2CC2)c(OCC2CC2)n1)c1noc(N)n1 [Example 296, 5-Cyclopropyl-6-cyclopropylmethoxy-pyridine-2-carboxylic acid [1-(5-amino-[1,2,4]oxadiazol-3-yl)-1-methyl-ethyl]-amide] | > 10000 | 60.8
8 | CCC(CC)(NC(=O)c1cccc(OCC(F)(F)C(F)(F)F)n1)C(=O)NC [Example 297, 6-(2,2,3,3,3-Pentafluoro-propoxy)-pyridine-2-carboxylic acid (1-ethyl-1-methylcarbamoyl-propyl)-amide] | > 10000 | 962
9 | CCC(CC)(NC(=O)c1ccc(C2CC2)c(OCC(F)(F)C(F)(F)F)n1)C(=O)NC [Example 298, 5-Cyclopropyl-6-(2,2,3,3,3-pentafluoro-propoxy)-pyridine-2-carboxylic acid (1-ethyl-1-methylcarbamoyl-propyl)-amide] | > 10000 | 14.2
10 | CNC(=O)[C@H](CC(C)(C)C)NC(=O)c1ccc(C2CC2)c(OCC(F)(F)C(F)(F)F)n1 [Example 299, 5-Cyclopropyl-6-(2,2,3,3,3-pentafluoro-propoxy)-pyridine-2-carboxylic acid ((S)-3,3-dimethyl-1-methylcarbamoyl-butyl)-amide] | 603 | 27.6
11 | Cc1nc([C@H](CC2CC2)NC(=O)c2ccc(C3CC3)c(OCC(F)(F)C(F)(F)F)n2)no1 [Example 300, 5-Cyclopropyl-6-(2,2,3,3,3-pentafluoro-propoxy)-pyridine-2-carboxylic acid [(S)-2-cyclopropyl-1-(5-methyl-[1,2,4]oxadiazol-3-yl)-ethyl]-amide] | > 10000 | 31.8
12 | NC(=O)[C@@H](NC(=O)c1ccc(C2CC2)c(OCC(F)(F)F)n1)c1ccccc1 [Example 301, 5-Cyclopropyl-6-(2,2,2-trifluoro-ethoxy)-pyridine-2-carboxylic acid ((S)-carbamoyl-phenyl-methyl)-amide] | > 10000 | 130
13 | O=C(NC(c1ccccn1)C(F)(F)F)c1ccc(C2CC2)c(OCC(F)(F)F)n1 (centres unmarked) [Example 302, 5-Cyclopropyl-6-(2,2,2-trifluoro-ethoxy)-pyridine-2-carboxylic acid (2,2,2-trifluoro-1-pyridin-2-yl-ethyl)-amide] | > 10000 | 587
14 | CC(C)C[C@@H](CO)NC(=O)c1ccc(C2CC2)c(OCC(F)(F)F)n1 [Example 303, 5-Cyclopropyl-6-(2,2,2-trifluoro-ethoxy)-pyridine-2-carboxylic acid ((S)-1-hydroxymethyl-3-methyl-butyl)-amide] | > 10000 | 38
15 | O=C(NC1(c2nccs2)COC1)c1ccc(C2CC2)c(OCC(F)(F)F)n1 [Example 304, 5-Cyclopropyl-6-(2,2,2-trifluoro-ethoxy)-pyridine-2-carboxylic acid (3-thiazol-2-yl-oxetan-3-yl)-amide] | > 10000 | 135
16 | CC(C)(NC(=O)c1ccc(C2CC2)c(OCC(F)(F)F)n1)c1nccs1 [Example 305, 5-Cyclopropyl-6-(2,2,2-trifluoro-ethoxy)-pyridine-2-carboxylic acid (1-methyl-1-thiazol-2-yl-ethyl)-amide] | > 10000 | 50.3
17 | CC(C)(C)C(NC(=O)c1ccc(C2CC2)c(OCC(F)(F)F)n1)c1nccs1 (centres unmarked) [Example 306, 5-Cyclopropyl-6-(2,2,2-trifluoro-ethoxy)-pyridine-2-carboxylic acid (2,2-dimethyl-1-thiazol-2-yl-propyl)-amide] | > 10000 | 138
18 | CCC(CC)(NC(=O)c1ccc(N2CC(F)(F)C2)c(OCC2CC2)n1)C(=O)N1CC(F)(F)C1 [Example 307, 6-Cyclopropylmethoxy-5-(3,3-difluoro-azetidin-1-yl)-pyridine-2-carboxylic acid [1-(3,3-difluoro-azetidine-1-carbonyl)-1-ethyl-propyl]-amide] | > 10000 | 4.7
19 | O=C(NNC1CCS(=O)(=O)C1)c1cccc(Cc2ccc(F)cc2)n1 (centres unmarked) [Example 308, 6-(4-Fluoro-benzyl)-pyridine-2-carboxylic acid N′-(1,1-dioxo-tetrahydro-1λ^6-thiophen-3-yl)-hydrazide] | > 10000 | 580
20 | CC(C)(NC(=O)c1ccc(C2CC2)c(OCC2CC2)n1)c1nc(N)no1 [Example 309, 5-Cyclopropyl-6-cyclopropylmethoxy-pyridine-2-carboxylic acid [1-(3-amino-[1,2,4]oxadiazol-5-yl)-1-methyl-ethyl]-amide] | > 10000 | 176
21 | CC(C)(C)[C@H](NC(=O)c1ccc(N2CC(F)(F)C2)c(OCC2CC2)n1)C(=O)N1CC(F)(F)C1 [Example 310, 6-Cyclopropylmethoxy-5-(3,3-difluoro-azetidin-1-yl)-pyridine-2-carboxylic acid [(S)-1-(3,3-difluoro-azetidine-1-carbonyl)-2,2-dimethyl-propyl]-amide] | > 10000 | 14.7
22 | CC(C)C[C@H](NC(=O)c1ccc(N2CC(F)(F)C2)c(OCC2CC2)n1)C(=O)N1CC(F)(F)C1 [Example 311, 6-Cyclopropylmethoxy-5-(3,3-difluoro-azetidin-1-yl)-pyridine-2-carboxylic acid [(S)-1-(3,3-difluoro-azetidine-1-carbonyl)-3-methyl-butyl]-amide] | > 10000 | 8.4
